# Measured values reported in US20180010188A1, “METHOD FOR DETECTING NONSENSE-MEDIATED RNA DECAY” (The Regents of the University of California, priority 2016, published 2018).
# Tested on: polysome integrity
# Assay: Polysome fractionation by sucrose density gradient centrifugation
# Format: cell-based, mouse
# Settings: 5 hours, DMSO 30
# Protocol: In addition to altering gene expression via the IRE1-Xbp1s signaling pathway to retain homeostasis, ER stress also reduces global protein synthesis (Harding et al., 1999. Nature 397: 271-274; Ron D. 2002. J Clin Invest 110: 1383-1388; Wek et al., 2006. Biochem Soc Trans 34: 7-11). The dose of thapsigargin inhibiting NMD was as low as 20 nM, whereas according to the literature, thapsigargin has been widely used at 1 μM to induce ER stress. To assess whether the NMD-inhibiting thapsigargin doses also repressed translation, we performed ribosome fractionation using sucrose density gradient centrifugation and examined polysome integrity as an indicator of translational activity. […] The heavier polysomes (>4 ribosomes) were affected the most and further collapsed with increasing doses of thapsigargin. Polysome disintegration was also accompanied by increasing optical density values of 80S. To quantify the dose effect of thapsigargin, we drew a line from the peak of the disome to the peak of the polysome consisting of roughly 8 ribosomes based on relative elution time. We measured the angle of this line relative to a horizontal line through the disome peak and used the angle as an indicator of polysome integrity. This angle was 30 for DMSO-treated cells and decreased to 0, −18, −20, −30 and −40 in response to increasing thapsigargin concentrations of 0.01, 0.02, 0.05, 0.1 and 0.2 μM, respectively.
# For polysome fractionation, 1.5×10^7 N2a cells in 20 ml N2a complete media were plated on 150 mm petri dishes overnight and treated with varying concentrations of thapsigargin the next day. Cycloheximide (Fisher Scientific, cat. no. 50490338) was added at a concentration of 100 μg/ml, and the cells were incubated for 10 min at 37° C. before lysate collection. The cells were washed twice with 10 ml cold 1×PBS containing 100 μg/ml cycloheximide then collected in 4 ml of the same cold PBS solution. The cells were lysed with 0.5 ml lysis buffer (20 mM Tris pH 7.5, 100 mM KCl, 5 mM MgCl2, 2 mM DTT, 100 μg/ml cycloheximide, 1% Triton X-100, 50 u/ml RNaseout and 1×EDTA-free protease inhibitor cocktail). Roughly 400 μl ([…]) of lysate was loaded onto premade sucrose gradients (60% to 15%) and balanced (within 0.5 mg) before ultracentrifugation at 4° C. and 237,000 g (50,000 rpm for a SW55 Ti rotor) for 1.5 hours. Products were carefully removed from the ultracentrifuge and fractionated with the apparatus consisting of the gradient fractionator (Brandel SYN-202), the ISCO absorbance detector (ISCO # UA-6, Lincoln, Nebr.) and the fraction collector (R1 Fraction Collector) at 2.0 sensitivity and 150 cm/h chart speed to record absorbance data and collect fractionations.
structure (smiles),measurement,setting,value
C/C=C(/C)C(=O)O[C@H]1C(C)=C2[C@H]([C@@H]1OC(=O)CCCCCCC)[C@@](C)(OC(C)=O)C[C@H](OC(=O)CCC)[C@@]1(O)[C@H]2OC(=O)[C@@]1(C)O [thapsigargin],angle of disome-to-8-ribosome peak line (polysome integrity),0.01 μM,0
same,angle of disome-to-8-ribosome peak line (polysome integrity),0.02 μM,−18
same,angle of disome-to-8-ribosome peak line (polysome integrity),0.05 μM,−20
same,angle of disome-to-8-ribosome peak line (polysome integrity),0.1 μM,−30
same,angle of disome-to-8-ribosome peak line (polysome integrity),0.2 μM,−40
